# Results published in patent US12510533B2, “Methods for treating multiple myeloma and the use of companion biomarkers for 4-(4-(4-(((2-(2,6-dioxopiperidin-3-yl)-1-oxoisoindolin-4-yl)oxy)methyl)benzyl)piperazin-1-yl)-3-fluorobenzonitrile” (Celgene Corporation, priority 2018, dated 2025).
# pIC50: −log10 of the molar value. Like-named read-outs stand apart in the source and are kept apart here.
# Columns and labels:
# Aiolos = target: T1, Aiolos (Homo sapiens, UniProt Q96SW2+Q9UKT9); assay: Aiolos degradation, ePL luminescence assay in DF15 cells expressing ePL-tagged Aiolos; type: cell-based; conditions: for DC50: read-out: Degradation of Aiolos IC50, DF15 cells
# T1 construct: expressed in transfected cells; host or cells: DF15 multiple myeloma cells
# T1 sequence (Q9UKT9 whole entry): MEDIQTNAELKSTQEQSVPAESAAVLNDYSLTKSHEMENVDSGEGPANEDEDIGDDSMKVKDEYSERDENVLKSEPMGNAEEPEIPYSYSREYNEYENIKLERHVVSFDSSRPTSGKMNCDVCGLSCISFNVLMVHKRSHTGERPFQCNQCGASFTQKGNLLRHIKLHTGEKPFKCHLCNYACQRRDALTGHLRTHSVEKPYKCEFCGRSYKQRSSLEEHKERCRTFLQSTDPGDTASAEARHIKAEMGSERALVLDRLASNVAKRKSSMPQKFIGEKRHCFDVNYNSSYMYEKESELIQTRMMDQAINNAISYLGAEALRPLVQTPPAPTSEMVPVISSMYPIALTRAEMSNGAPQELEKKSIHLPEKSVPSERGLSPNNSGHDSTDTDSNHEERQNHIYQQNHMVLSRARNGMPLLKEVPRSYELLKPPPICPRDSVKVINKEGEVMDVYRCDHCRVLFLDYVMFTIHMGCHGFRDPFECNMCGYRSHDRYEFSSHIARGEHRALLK
# T1 sequence (Q96SW2 whole entry): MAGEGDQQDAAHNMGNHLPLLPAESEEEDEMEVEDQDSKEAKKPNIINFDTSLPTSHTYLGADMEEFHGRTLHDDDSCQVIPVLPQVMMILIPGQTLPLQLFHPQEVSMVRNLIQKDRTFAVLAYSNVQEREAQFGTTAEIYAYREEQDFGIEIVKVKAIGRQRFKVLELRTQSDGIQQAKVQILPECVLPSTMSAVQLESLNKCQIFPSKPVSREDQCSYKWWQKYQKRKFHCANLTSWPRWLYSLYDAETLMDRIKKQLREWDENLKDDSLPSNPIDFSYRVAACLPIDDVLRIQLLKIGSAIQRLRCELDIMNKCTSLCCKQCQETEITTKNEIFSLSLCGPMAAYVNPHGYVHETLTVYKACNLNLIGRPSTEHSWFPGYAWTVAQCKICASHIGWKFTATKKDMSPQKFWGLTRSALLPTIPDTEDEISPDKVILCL
# T1 sequence (Q16531 2-1140, further chain): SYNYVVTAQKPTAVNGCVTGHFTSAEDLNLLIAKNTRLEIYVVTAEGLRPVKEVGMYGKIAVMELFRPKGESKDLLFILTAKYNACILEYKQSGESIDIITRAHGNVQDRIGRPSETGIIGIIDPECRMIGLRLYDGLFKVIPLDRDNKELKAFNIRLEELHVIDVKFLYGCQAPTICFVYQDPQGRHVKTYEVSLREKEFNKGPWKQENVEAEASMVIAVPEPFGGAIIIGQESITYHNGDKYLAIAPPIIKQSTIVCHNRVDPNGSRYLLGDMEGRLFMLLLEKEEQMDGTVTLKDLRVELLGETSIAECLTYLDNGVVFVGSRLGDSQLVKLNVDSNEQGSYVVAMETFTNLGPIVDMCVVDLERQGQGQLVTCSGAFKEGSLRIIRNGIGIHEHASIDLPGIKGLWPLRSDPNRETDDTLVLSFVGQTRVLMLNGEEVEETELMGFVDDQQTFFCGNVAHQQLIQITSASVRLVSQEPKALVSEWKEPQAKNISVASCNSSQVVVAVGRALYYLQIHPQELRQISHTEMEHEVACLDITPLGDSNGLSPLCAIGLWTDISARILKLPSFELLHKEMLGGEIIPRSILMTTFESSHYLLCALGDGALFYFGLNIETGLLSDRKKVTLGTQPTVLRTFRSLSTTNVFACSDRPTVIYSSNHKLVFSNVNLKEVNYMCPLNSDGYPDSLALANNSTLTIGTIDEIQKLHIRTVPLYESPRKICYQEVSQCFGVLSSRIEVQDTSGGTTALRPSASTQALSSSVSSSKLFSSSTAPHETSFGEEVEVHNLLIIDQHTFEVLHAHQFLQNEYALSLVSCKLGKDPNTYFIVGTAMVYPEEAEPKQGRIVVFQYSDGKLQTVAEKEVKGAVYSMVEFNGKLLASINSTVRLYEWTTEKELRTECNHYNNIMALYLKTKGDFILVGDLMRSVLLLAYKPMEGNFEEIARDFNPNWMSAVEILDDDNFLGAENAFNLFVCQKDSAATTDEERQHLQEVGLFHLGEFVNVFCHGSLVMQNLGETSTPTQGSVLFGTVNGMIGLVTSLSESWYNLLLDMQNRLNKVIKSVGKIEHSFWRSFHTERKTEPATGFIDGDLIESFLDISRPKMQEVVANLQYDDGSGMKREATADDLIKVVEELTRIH
# Procedure: FIG. 1 illustrates that Compound 2 and Compound 3 degraded Aiolos protein in a time and concentration dependent manner. DF15 cells expressing Enhanced ProLabel (ePL)-tagged Aiolos were incubated with Compound 2 (triangle) or Compound 3 (square) for 45 minutes, 90 minutes, or 3 hours at the indicated concentrations. Cell extracts were then generated and the amount of Aiolos-ePL protein was determined by ePL luminescence assay.
# The relative effectiveness of Compound 2 and Compound 3 to promote the destruction of Aiolos protein by the CRL4^CRBN E3 ubiquitin ligase was investigated in DF15 myeloma cells at different time points (45 minutes, 90 minutes, and 3 hours). DF15 cells expressing Enhanced ProLabel (ePL)-tagged Aiolos were incubated with Compound 2 or Compound 3 for 45 minutes, 90 minutes, or 3 hours. Cell extracts were then generated and the amount of Aiolos ePL protein was determined by ePL luminescence assay. Values shown in Table 1 correspond to data presented in FIG. 1 for Aiolos content vs. concentration.
# OPM2 cells = assay: cells; type: cell-based, human; conditions: Homo sapiens, read-out: Inhibition of Proliferation of OPM2 Cells IC50
# Procedure: The effect of the stabilizing mutations on cell proliferation was also measured.
Structure (SMILES),"manner of Aiolos degradation (Aiolos; 45 minutes, 90 minutes, 3 hours)","inhibition at 0.001 µM (Aiolos; DF15, read-out: inhibition at 0.001 μM) [%]",DC50 (Aiolos; 45 minutes incubation) [nM],DC50 (Aiolos; 90 minutes incubation) [nM],DC50 (Aiolos; 3 hours incubation) [nM],"pIC50 (OPM2 cells; OPM-2, Parental)","pIC50 (OPM2 cells; OPM-2, overexpressing Aiolos Q147H)","pIC50 (OPM2 cells; OPM-2, overexpressing Aiolos)","pIC50 (OPM2 cells; OPM-2, overexpressing Ikaros-G151A)","pIC50 (OPM2 cells; OPM-2, overexpressing Ikaros-Q146H)","pIC50 (OPM2 cells; OPM-2, overexpressing Ikaros)","pIC50 (OPM2 cells; OPM-2, overexpressing ZFP91-Q400H)"
"N#Cc1ccc(N2CCN(Cc3ccc(COc4cccc5c4CN([C@@H]4CCC(=O)NC4=O)C5=O)cc3)CC2)c(F)c1 [Compound 3, (R)-4-(4-(4-(((2-(2,6-dioxopiperidin-3-yl)-1-oxoisoindolin-4-yl)oxy)methyl)benzyl)piperazin-1-yl)-3-fluorobenzonitrile]",time-dependent and concentration-dependent,13,> 100,5.9,0.45,,,,,,,
"Nc1cccc2c1C(=O)N(C1CCC(=O)NC1=O)C2=O (stereo not drawn) [Pomalidomide, pomalidomide, reference compound]",,,,,,7.19,7.25,7.05,< 7.00,< 7.00,7.04,7.14
